In ChEMBL document CHEMBL5325443, “Discovery and structure-activity relationship of Morita-Baylis-Hillman adducts as larvicides against dengue mosquito vector, Aedes aegypti (Diptera: Culicidae)” (2023):
In brackets after ≈: the same amount, converted by molar mass. Activity calls are given as the source filed them. The rule behind the calls is not given here.

Experiments:
Aedes aegypti [1] = assay: Larvicidal activity against fourth instar Aedes aegypti larvae assessed as mortality rate at 100 ug/ml measured after 48 hrs relative to control; type: functional
Aedes aegypti [2] = assay: Larvicidal activity against fourth instar Aedes aegypti larvae assessed as lethal concentration measured after 48 hrs; type: functional
Aedes aegypti [3] = assay: Induction of morphological changes in fourth instar Aedes aegypti larvae assessed as damage in thorax at LC50 concentration measured after 48 hrs by scanning electron microscopic analysis; type: functional
Aedes aegypti [4] = assay: Induction of morphological changes in fourth instar Aedes aegypti larvae assessed as modification in terminal abdomen in 6th to 8th segment at LC50 concentration measured after 48 hrs by scanning electron microscopic analysis; type: functional, organism-based
Aedes aegypti [5] = assay: Induction of morphological changes in fourth instar Aedes aegypti larvae assessed as loss in anal papillae at LC50 concentration measured after 48 hrs by scanning electron microscopic analysis; type: functional, organism-based

Compound	mortality at 100 µg/mL (Aedes aegypti [1])	LC50 (Aedes aegypti [2])	further results
C=C(C(=O)OCC)C(O)c1ccc(OC)cc1 (stereo not given)	21.7%		
C=C(C(=O)OC)C(O)c1ccc(Br)cc1 (stereo not given)	51.7%		
CC(COc1ccc(Oc2ccccc2)cc1)Oc1ccccn1 (stereo not given) [PYRIPROXYFEN]		1.75 µg/mL (≈ 5.45 µM)	
C=C(C(=O)OCC)C(O)c1ccc([N+](=O)[O-])cc1 (stereo not given)	16.7%		
C=C(C(=O)OC)C(O)c1ccc2ccccc2c1 (stereo not given)	88.3%	77.7 µg/mL (≈ 321 µM)	
C=C(C(=O)OC)C(O)c1ccc(-c2ccccc2)cc1 (stereo not given)	93.3%	41.4 µg/mL (≈ 154 µM)	Activity (Aedes aegypti [3]): 100%; Activity (Aedes aegypti [4]): Active; Activity (Aedes aegypti [5]): Active
C=C(C(=O)OC)C(O)c1cc(OC)c(OC)c(OC)c1 (stereo not given)	16.7%		
C=C(C(=O)OC)C(O)c1ccccc1Cl (stereo not given)	21.7%		
C=C(C(=O)OC)C(O)c1ccc(F)cc1 (stereo not given)	16.7%		
CC[C@H]1CCC[C@H](O[C@H]2CC[C@H](N(C)C)[C@@H](C)O2)[C@@H](C)C(=O)C2=C[C@@H]3[C@@H](C=C(C)[C@@H]4C[C@@H](O[C@@H]5O[C@@H](C)[C@H](OC)[C@@H](OC)[C@H]5OC)C[C@@H]34)[C@@H]2CC(=O)O1 [SPINOSYN D]		0.02 µg/mL (≈ 0.0268 µM)	
C=C(C(=O)OC)C(O)c1ccc(Cl)cc1 (stereo not given)	81.7%	88.2 µg/mL (≈ 389 µM)	
CC[C@H]1CCC[C@H](O[C@H]2CC[C@H](NC)[C@@H](C)O2)[C@@H](C)C(=O)C2=C[C@@H]3[C@@H](C=C[C@@H]4C[C@@H](O[C@@H]5O[C@@H](C)[C@H](OC)[C@@H](OC)[C@H]5OC)C[C@@H]34)[C@@H]2CC(=O)O1		0.02 µg/mL (≈ 0.0279 µM)	
C=C(C(=O)OCC)C(O)c1ccccc1Cl (stereo not given)	85%	86.7 µg/mL (≈ 360 µM)	
C=C(C(=O)OCC)C(O)c1nccs1 (stereo not given)	10%		
CC[C@H]1CCC[C@H](O[C@H]2CC[C@H](N(C)C)[C@@H](C)O2)[C@@H](C)C(=O)C2=C[C@@H]3[C@@H](C=C[C@@H]4C[C@@H](O[C@@H]5O[C@@H](C)[C@H](OC)[C@@H](OC)[C@H]5OC)C[C@@H]34)[C@@H]2CC(=O)O1 [SPINOSYN A]		0.02 µg/mL (≈ 0.0273 µM)	
C=C(C(=O)OC)C(O)c1ccc(C)cc1 (stereo not given)	10%		
COP(=S)(OC)Oc1ccc(Sc2ccc(OP(=S)(OC)OC)cc2)cc1 [TEMEFOS]		4.25 µg/mL (≈ 9.11 µM)	
C=C(C(=O)OC)C(O)/C=C/c1ccccc1 (stereo not given)	71.7%		
